The source of these data is patent US9802897B2, “Amidopyridinol derivative or pharmaceutically acceptable salt thereof and pharmaceutical composition comprising same as active component” (Research Cooperation Foundation of Yeungnam University, priority 2013, dated 2017).

Where “and” joins values, the source holds several entries; their conditions need not be identical. Identical values can stand only once. Like-named read-outs stand apart in the source and are kept apart here.

The test system of experiment [1] is VEGF-induced angiogenesis in chicken chorioallantoic membrane (CAM). The experiment can be described thus: CAM analysis of VEGF-induced angiogenesis. The settings on record: for inhibition in vivo at 0.01 nmol/CAM: Gallus gallus, 72 h, VEGF (20 ng/CAM) + Compound (0.01 nmol/CAM), number of blood vessels after 3 days, read-out: Inhibitory rates (%). Format: in vivo. The method, then:
To confirm inhibitory effects on angiogenesis through in vivo experiments, the chorioallantoic membrane (CAM) analysis was carried out (refer to Nguyen M et al., Microvascular Res., 47, pp 31-40, 1994). A fertilized egg of a chicken was cultured in conditions maintaining a temperature of 37° C. and relative humidity of 55%. On the 10th day of the culturing, a first small hole was made on an air sac part using a hypodermic needle (Green Cross Medical Corp., Korea), and then, a second hole was made on a flat part of the fertilized egg to make a window thereon. Air was removed through the first hole, i.e., the air sac part, and accordingly, the CAM was separated from the shell of the fertilized egg. Then, a grinding wheel (Multipro 395JA, Dremel, Mexico) was used to cut the air sac part, thereby making a window thereon. Next, the whatman filter disk #1 (Whatman Company, USA) was treated with 3 mg/mL of cortisone acetate, dried, and then, wet by VEGF at a concentration of 20 ng/CAM. The filter disk was placed on blood vessels through the window, and then, compounds prepared according to Examples above were each dissolved in DMSO, diluted with PBS, and then, treated for each concentration. After 3 days of treating the compounds, the CAM part on which the filter disk was placed was isolated, and then, washed with PBS. The Stemi SV6 stereomicroscope (Carl Zeiss, Germany) and the Image-Pro Plus software (Media Cybernetics; Silver Spring, Md., USA) were used to capture images of the CAM part, so as to measure the number of the blood vessels and to analyze data obtained therefrom.

The next experiment relates to A549 lung cancer cells. The experiment can be described thus: CAM inoculated with A549 lung cancer cells: angiogenesis and tumor growth. Format: in vivo, chicken. The settings on record: for Inhibition rates of angiogenesis (%) / Inhibition rates of tumor growth (%): A549 on CAM, 5 days. The method, then:
To confirm inhibitory effects on angiogenesis through in vivo experiments, the CAM analysis was carried out (refer to Nguyen M et al., Microvascular Res., 47, pp 31-40, 1994). A fertilized egg of a chicken was cultured in conditions maintaining a temperature of 37° C. and relative humidity of 55%. On the 9th day of the culturing, a first small hole was made on an air sac part using a hypodermic needle (Green Cross Medical Corp., Korea), and then, a second hole was made on a flat part of the fertilized egg to make a window thereon. Air was removed through the first hole, i.e., the air sac part, and accordingly, the CAM was separated from the shell of the fertilized egg. Then, a grinding wheel (Multipro 395JA, Dremel, Mexico) was used to cut the air sac part, thereby making a window thereon. Meanwhile, A549 lung cancer cells were mixed with matrigel at a ratio of 1:1, and then, the mixture was treated with Compounds 8a, 8b, and 8g, respectively, followed by being inoculated at a density of 1.5×10^6 cells/CAM.
After 5 days of the inoculation, the CAM part on which tumors were formed was isolated, and then, washed with PBS. The Stemi SV6 stereomicroscope (Carl Zeiss, Germany) and the Image-Pro Plus software (Media Cybernetics; Silver Spring, Md., USA) were used to capture images of the CAM part, so as to measure the number of the blood vessels and to analyze data obtained therefrom.

The subject of another experiment is cathepsin S. The experiment can be described thus: RT-PCR of cathepsin S gene expression in MDA-MB-231 cells. Format: cell-based. The method, then: Each compound of the present invention was treated with breast cancer cells (1×10^5 cell/cm^2), e.g., MDA-MB-231, and then, cultured at a temperature of 37° C. for 24 hours in a cell incubator. Afterwards, a trizole reagent was used to extract the entire mRNA therefrom. 24 hours later, the culture medium was removed therefrom, 1 mL of the triazole reagent was added to each well, and then, the cell elusion was transferred to a 1.5 mL tube. After 200 μl of chloroform was added to each sample, the samples were subjected to centrifugation at a temperature of 4° C., at 12,000 g, for 15 minutes. 500 μl of the supernatant obtained therefrom was transferred to a new tube. After 500 μl of isopropylalcohol was added to each sample, the samples were subjected to centrifugation at a temperature of 4° C., at 12,000 g, for 15 minutes. The supernatant obtained therefrom was removed from each sample, and then, the samples were washed with 75% ethanol to clean mRNA while the precipitants were dried. Then, mRNA extracted therefrom was dissolved in RNase-free water, followed by being heated at a temperature of 55° C. for 10 minutes.
After the RNA quantification, the GoScript™ reverse transcription system (Promega Corporation, Madison, Wis., USA) was used to synthesize cDNA. Here, PCR was performed by using TaKaRa Taq™ (Takara bio Inc., Shiga, Japan), wherein a primer set of cathepsin S consists of a forward primer having SEQ ID NO: 1 (forward sequence: 5′-GCAGTGGCACAGTTGCATAA-3′) and a reverse primer having SEQ ID NO: 2 (reverse sequence: 5′-AGCACCACAAGAACCCATGT-3′). After the PCR product was subjected to agarose gel electrophoresis, the PCR product was stained with ethidium bromide (0.5 μg/ml), thereby obtaining images thereof by using the gel imaging system (UVP, Cambridge, UK). Here, the PCR product was quantified based on glyceraldehyde 3-phosphate dehydrogenase (GAPDH). A GAPDH primer used herein consists of a forward primer having SEQ ID NO: 3 (forward sequence: 5′-GGTGAAGGTCGGAGTCAACG-3′) and a reverse primer having SEQ ID NO: 4 (reverse sequence: 5′-CAAAGTTGTCATGGATGACC-3′).
Furthermore, to screen other amidopyridinol derivatives that inhibit metastasis of breast cancer cells, inhibitory effects on expression of cathepsin S genes were reviewed by treating 1 μM of each compound, in the same manner as in Experimental Example 9.

A further experiment concerns HT-29 cells / U937 cells. The experiment can be described thus: TNF-α-induced adhesion of HT-29 intestinal epithelial cells and U937 mononuclear cells. Format: cell-based, human. The following applies: Homo sapiens; 1 μM, pre-treated 1 hour; TNF-α 10 ng/ml; read-out: Inhibitory rates (%). How it is done: HT-29 cells were cultured in a 24-well plate at a concentration of […] cells/cm^2, and meanwhile, amidopyridinol compounds 8a to 8z were pre-treated for 1 hour at each concentration in a serum-free medium supplemented only with 1% PS. Next, 10 ng/ml of TNF-α was treated therewith to allow a reaction at a temperature of 37° C. for 3 hours. After the completion of the reaction, the medium of the HT-29 cells was removed, and then, the HT-29 cells were washed with PBS once. Afterwards, U937 cells, which were treated and reacted with 10 μg/mL of BCECF-AM at a temperature of 37° C. for 30 minutes, were allowed to react with the HT-29 cells at temperature of 37° C. for 1 hour. Then, to remove U937 cells that were not adhered to the HT-29 cells, the reacted cells were washed with PBS twice. In terms of cell dissolution, 0.1% Triton X-100 in 0.1M Tris was allowed to react with the cells for 30 minutes at room temperature, and then, the cells were subjected to quantify by measuring fluorescence thereof using the Fluostar optima microplate reader (BMG Labtechnologies, Germany).

The next experiment relates to MDA-MB-231 cells. The experiment can be described thus: Transwell invasion assay of MDA-MB-231 breast cancer cells. Format: cell-based. The following applies: MDA-MB-231. How it is done: The invasion assay was performed by using the transwell insert (BD FALCON, Bedford, USA) equipped with a 8 μm pore-sized filter. An upper part of the transwell insert filter was coated with 20 μl of matrigel (1 mg/ml) while a bottom part of the same was coated with 30 μl of type I collagen (0.5 mg/ml). The MDA-MB-231 cells (5×10^5 cells/100 μl) were added to the insert chamber, and then, each inhibitor was also added thereto. To induce invasion of the cells, a medium supplemented with 5% FBS was added to each well of the bottom chamber to allow a reaction at a temperature of 37° C. in a cell incubator. 18 hours later, the cells remained after removing the solution in the insert chamber were removed by using a cotton swab, whereas cells at the bottom of the membrane were fixed with methanol and stained with hematoxylin and eosin. The cells present at the membrane were observed through a microscope, and the number of the cells was counted in the selected 5 fields at the resolution of 200×.
According to the same manner as in Experimental Example 7, inhibitory effects of the amidopyridinol derivatives synthesized in Examples above on invasion of breast cancer cells, e.g., MDA-MB-231, were reviewed. Here, to compare with, inhibitory effects of aminopyridinol derivatives, e.g., 6-amino-2,4,5-trimethylpyridine-3-ol (BJ-1101) and 6-diphenylamino-2,4,5-trimethylpyridine-3-ol (BJ-1201), on invasion of breast cancer cells, e.g., MDA-MB-231, were reviewed.

In the case of `Cc1nc(NC(=O)C2CCCC2)c(C)c(C)c1O` [Compound 8g, N-(5-hydroxy-3,4,6-trimethylpyridine-2-yl)cyclopentane carboxamide], in experiment [1], the inhibition in vivo at 0.01 nmol/CAM was found to be 81.8 ± 8.4%. Besides, in experiment [1] (VEGF-induced CAM angiogenesis), the “ID50 against inhibition of angiogenesis” value is 0.9 pg/CAM and 3.6 fmol/CAM. In addition, the “Inhibition rates of angiogenesis (%)” value in the experiment with A549 lung cancer cells (0.001 pmol/CAM) was 30.9 ± 8.5 %; in the experiment with A549 lung cancer cells (0.01 pmol/CAM), 48.4 ± 4.1 %; with A549 lung cancer cells (0.1 pmol/CAM), 54.4 ± 6.7 %; in the experiment with A549 lung cancer cells (1.0 pmol/CAM) it was 58.1 ± 6.8 %. Besides, the “Inhibition rates of tumor growth (%)” value in the experiment with A549 lung cancer cells (0.001 pmol/CAM) turned out to be 13.2 ± 3.5%; in the experiment with A549 lung cancer cells (0.01 pmol/CAM), 24.0 ± 1.6 %; in the experiment on A549 lung cancer cells (0.1 pmol/CAM), 45.1 ± 3.1 %; in the experiment with A549 lung cancer cells (1.0 pmol/CAM) it was 62.7 ± 2.3 %. In addition, the “inhibitory effects on angiogenesis and tumor growth (in words)” value in the experiment with A549 lung cancer cells (at each density) is recorded as “inhibited angiogenesis upon tumorigenesis, as well as tumor growth”. The inhibition at 1 µM in the experiment with cathepsin S (Homo sapiens, MDA-MB-231, 24 h, screening, 1 μM of each compound, MDA-MB-231, RT-PCR, read-out: Inhibition rate of expression of cathepsin S (%)) was at least 50%; in the experiment on HT-29 cells / U937 cells, 42.8%.

In the case of `Cc1nc(NC(=O)c2cccs2)c(C)c(C)c1O` [Compound 8q, N-(5-hydroxy-3,4,6-trimethylpyridine-2-yl)thiophene-2-carboxamide], the inhibition at 0.01 µM in the experiment on MDA-MB-231 cells (Homo sapiens, 0.01 μM, read-out: Inhibition rates of invasion of cancer cells (%)) is 47.6 ± 18.1%; in the experiment on cathepsin S (Homo sapiens, MDA-MB-231, 24 h, 0.01 μM, MDA-MB-231, 24 hours, RT-PCR, read-out: Inhibition rate of expression of cathepsin S (%)), 42 ± 1.21%. The inhibition at 0.1 µM in the experiment on MDA-MB-231 cells (Homo sapiens, 0.1 μM, read-out: Inhibition rates of invasion of cancer cells (%)) stood at 59 ± 10.4%; with cathepsin S (Homo sapiens, MDA-MB-231, 24 h, 0.1 μM, MDA-MB-231, 24 hours, RT-PCR, read-out: Inhibition rate of expression of cathepsin S (%)), 52 ± 1.68%. Also, the inhibition at 1 µM amounted to 65.8 ± 5.03% with MDA-MB-231 cells (Homo sapiens, 1 μM, read-out: Inhibition rates of invasion of cancer cells (%)); 57 ± 1.55% in the experiment with cathepsin S (Homo sapiens, MDA-MB-231, 24 h, 1 μM, MDA-MB-231, 24 hours, RT-PCR, read-out: Inhibition rate of expression of cathepsin S (%)); 68.4% in the experiment with HT-29 cells / U937 cells. Besides, the inhibition at 10 µM with MDA-MB-231 cells (Homo sapiens, 10 μM, read-out: Inhibition rates of invasion of cancer cells (%)) came out at 67.8 ± 4.25%. Further, the “inhibitory effects on invasion of breast cancer cells (in words)” value with MDA-MB-231 cells was “showed inhibitory effects on invasion of breast cancer cells”. In addition, the inhibition in vivo at 0.01 nmol/CAM in experiment [1] was 74.8 ± 13.2%. Besides, the “effects for reducing expression of cathepsin S genes (in words)” value in the experiment with cathepsin S (MDA-MB-231) was “the most effects for reducing expression of cathepsin S genes”.
